Results: patent publication US7268152B2, “Glucocorticoid mimetics, methods of making them, pharmaceutical compositions, and uses thereof” (Boehringer Ingelheim Pharmaceuticals, Inc., priority 2002, dated 2007)

The compounds below were run on glucocorticoid receptor (assay: One or more of the above assays (GR binding and GR cell assays; not specified which)). Details: in one or more of the above assays.
Format: cell-based
Procedure: This assay uses fluorescence polarization (FP) to quantitate the ability of test compounds to compete with tetramethyl rhodamine (TAMRA)-labeled dexamethasone for binding to a human glucocorticoid receptor (GR) complex prepared from an insect expression system. The assay buffer was: 10 mM TES, 50 mM KCl, 20 mM Na2MoO4.2H2O, 1.5 mM EDTA, 0.04% w/v CHAPS, 10% v/v glycerol, 1 mM dithiothreitol, pH 7.4. Test compounds were dissolved to 1 mM in neat DMSO and then further diluted to 10×assay concentration in assay buffer supplemented with 10% v/v DMSO. Test compounds were serially diluted at 10×assay concentrations in 10% DMSO-containing buffer in 96-well polypropylene plates. […] Positive controls were reaction mixtures containing no test compound; negative controls (blanks) were reaction mixtures containing 0.7 μM to 2 μM dexamethasone. […] IC50 values were determined by iterative non-linear curve fitting of the FP signal data to a 4-parameter logistic equation.
B. Glucocorticoid Receptor Cell Assays
1. Induction of Aromatase in Fibroblasts (Cell Assay for Transactivation)
Dexamethasone, a synthetic ligand to the glucocorticoid receptor (GR), induces expression of aromatase in human foreskin fibroblast cells. The activity of aromatase is measured by the conversion of testosterone to estradiol in culture media.
On the day of the experiment, the media in the wells is replaced with fresh media. Cells are treated with test compounds to final concentrations of 10^−5 M to 10 ^−8 M, and testosterone to a final concentration of 300 ng/mL. Each well has a total volume of 100 μL. Samples are made in duplicates. Control wells include: (a) wells that receive testosterone only, and (b) wells that receive testosterone plus 2 μM of dexamethasone to provide maximum induction of aromatase. Plates are incubated at 37° C. overnight (15 to 18 hours), and supernatants are harvested at the end of incubation. […] The amount of estradiol is inversely proportional to the ELISA signals in each well. The extent of aromatase induction by test compounds is expressed as a relative percentage to dexamethasone. EC50 values of test compounds are derived by non-linear curve fitting.
2. Inhibition of IL-6 Production in Fibroblasts (Cell Assay for Transrepression)
Human foreskin fibroblast cells produce IL-6 in response to stimulation by pro-inflammatory cytokine IL-1.
On the next day, media in the wells is replaced with fresh media. Cells are treated with IL-1 (rhIL-1α, R&D Systems Cat. No. 200-LA) to a final concentration of 1 ng/mL, and with test compounds to final concentrations of 10 ^−5 M to 10 ^−8 M, in a total volume of 200 μL per well. Samples are done in duplicates. […] Positive control wells receive IL-1 only and represent maximum (or 100%) amount of IL-6 production. Plates are incubated at 37° C. overnight (15 to 18 hours), and supernatants are harvested at the end of incubation. IL-6 levels in the supernatants are determined by the ELISA kits for IL-6 (MedSystems Diagnostics GmbH, Vienna, Austria, Cat. No. BMS213TEN) according to manufacture's instructions. The extent of inhibition of IL-6 by test compounds is expressed in percentage relative to positive controls. IC50 values of test compounds are derived by non-linear curve fitting.
Evaluation of agonist or antagonist activity of compounds binding to the glucocorticoid receptor may be determined by any of the assays.
3. Modulation of Tyrosine Aminotransferase (TAT) Induction in Rat Hepatoma Cells
Testing of compounds for agonist or antagonist activity in induction of tyrosine aminotransferase (TAT) in rat hepatoma cells.
H4-II-E-C3 cells were incubated overnight in 96 well plates (20,000 cells/100 μL/well) in MEM medium containing 10% heat inactivated FBS and 1% nonessential amino acids. On the next day, cells were stimulated with the indicated concentrations of dexamethasone or test compound (dissolved in DMSO, final DMSO concentration 0.2%) for 18 hours. Control cells were treated with 0.2% DMSO.

SMILES | activity as agonists of the glucocorticoid receptor function
COc1ccc(F)cc1C(C)(C)CC(O)(Cc1cc(Cl)cc(Cl)c1Cl)C(F)(F)F (stereo not drawn) [1,1,1-Trifluoro-4-(5-fluoro-2-methoxyphenyl)-4-methyl-2-(2,3,5-trichlorobenzyl)pentan-2-ol] | activity as agonists
COc1ccc(F)cc1C(C)(C)CC(O)(Cc1ccc(/C(C)=N/O)cc1Cl)C(F)(F)F (stereo not drawn) [1-{3-Chloro-4-[4-(5-fluoro-2-methoxyphenyl)-2-hydroxy-4-methyl-2-trifluoromethylpentyl]phenyl}ethanone oxime] | activity as agonists
COc1ccc(F)cc1C(C)(C)CC(O)(Cc1ccc(C(C)=O)cc1Cl)C(F)(F)F (stereo not drawn) [1-{3-Chloro-4-[4-(5-fluoro-2-methoxyphenyl)-2-hydroxy-4-methyl-2-trifluoromethylpentyl]phenyl}ethanone] | activity as agonists
COc1ccc(F)cc1C(C)(C)CC(O)(Cc1ccc(CO)cc1Cl)C(F)(F)F (stereo not drawn) [2-(2-Chloro-4-hydroxymethylbenzyl)-1,1,1-trifluoro-4-(5-fluoro-2-methoxyphenyl)-4-methylpentan-2-ol] | activity as agonists
COc1ccc(F)cc1C(C)(C)CC(O)(Cc1ccc(Cl)c(Cl)c1)C(F)(F)F (stereo not drawn) [2-(3,4-Dichlorobenzyl)-1,1,1-trifluoro-4-(5-fluoro-2-methoxyphenyl)-4-methylpentan-2-ol] | activity as agonists
CC(C)(CC(O)(Cc1cc(C(F)(F)F)cc(Cl)c1F)C(F)(F)F)c1cc([N+](=O)[O-])cc2c1OCC2 (stereo not drawn) [2-(3-Chloro-2-fluoro-5-trifluoromethylbenzyl)-1,1,1-trifluoro-4-methyl-4-(5-nitro-2,3-dihydrobenzofuran-7-yl)pentan-2-ol] | activity as agonists
COc1ccc(F)cc1C(C)(C)CC(O)(Cc1ccc(Cl)cc1)C(F)(F)F (stereo not drawn) [2-(4-Chlorobenzyl)-1,1,1-trifluoro-4-(5-fluoro-2-methoxyphenyl)-4-methylpentan-2-ol] | activity as agonists
Cc1cc(Br)cc(CC(O)(CC(C)(C)c2cc(F)ccc2O)C(F)(F)F)c1F (stereo not drawn) [2-[3-(5-Bromo-2-fluoro-3-methylbenzyl)-4,4,4-trifluoro-3-hydroxy-1,1-dimethylbutyl]-4-fluorophenol] | activity as agonists
Cc1cc(C)c(C#N)c(CC(O)(CC(C)(C)c2cc(F)ccc2O)C(F)(F)F)c1 (stereo not drawn) [2-[4-(5-Fluoro-2-hydroxyphenyl)-2-hydroxy-4-methyl-2-trifluoromethylpentyl]-4,6-dimethylbenzonitrile] | activity as agonists
COc1ccc(F)cc1C(C)(C)CC(O)(Cc1cc(C)cc(C)c1C#N)C(F)(F)F (stereo not drawn) [2-[4-(5-Fluoro-2-methoxyphenyl)-2-hydroxy-4-methyl-2-trifluoromethylpentyl]-4,6-dimethylbenzonitrile] | activity as agonists
Cc1cccc(C(C)(C)CC(O)(Cc2ccc(C#N)cc2Cl)C(F)(F)F)c1 (stereo not drawn) [3-Chloro-4-(2-hydroxy-4-methyl-4-m-tolyl-2-trifluoromethylpentyl)benzonitrile] | activity as agonists
CC(C)(CC(O)(Cc1ccc(C#N)cc1Cl)C(F)(F)F)c1ccc2ccccc2c1 (stereo not drawn) [3-Chloro-4-(2-hydroxy-4-methyl-4-naphthalen-2-yl-2-trifluoromethylpentyl)benzonitrile] | activity as agonists
Cc1ccccc1C(C)(C)CC(O)(Cc1ccc(C#N)cc1Cl)C(F)(F)F (stereo not drawn) [3-Chloro-4-(2-hydroxy-4-methyl-4-o-tolyl-2-trifluoromethylpentyl)benzonitrile] | activity as agonists

These compounds were tested against T1, human glucocorticoid receptor (GR) complex (Homo sapiens, UniProt P04150) (assay: Glucocorticoid receptor competitive binding assay (fluorescence polarization)). Details: competition with TAMRA-labeled dexamethasone.
T1 construct: made in house; host or cells: insect expression system (baculovirus lysate)
T1 sequence (P04150 1-777): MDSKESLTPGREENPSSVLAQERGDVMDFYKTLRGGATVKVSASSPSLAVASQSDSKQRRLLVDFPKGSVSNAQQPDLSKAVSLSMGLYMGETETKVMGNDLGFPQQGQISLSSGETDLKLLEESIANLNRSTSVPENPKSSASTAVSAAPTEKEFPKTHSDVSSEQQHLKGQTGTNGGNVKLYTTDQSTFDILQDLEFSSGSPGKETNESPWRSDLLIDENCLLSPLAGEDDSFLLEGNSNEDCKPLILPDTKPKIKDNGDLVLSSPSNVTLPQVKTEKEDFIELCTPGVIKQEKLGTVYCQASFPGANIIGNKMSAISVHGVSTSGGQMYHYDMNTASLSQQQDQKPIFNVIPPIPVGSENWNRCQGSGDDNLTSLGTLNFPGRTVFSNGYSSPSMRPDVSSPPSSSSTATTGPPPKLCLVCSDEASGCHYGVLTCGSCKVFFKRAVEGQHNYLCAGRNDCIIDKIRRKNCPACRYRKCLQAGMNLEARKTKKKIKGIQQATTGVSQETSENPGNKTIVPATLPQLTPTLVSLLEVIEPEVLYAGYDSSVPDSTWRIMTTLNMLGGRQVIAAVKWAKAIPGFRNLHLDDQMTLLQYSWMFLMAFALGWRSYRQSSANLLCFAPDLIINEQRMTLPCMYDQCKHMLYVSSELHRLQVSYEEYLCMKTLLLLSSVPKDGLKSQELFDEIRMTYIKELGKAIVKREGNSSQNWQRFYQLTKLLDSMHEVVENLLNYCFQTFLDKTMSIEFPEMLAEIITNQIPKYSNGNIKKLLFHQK
Procedure: Compounds of the invention were evaluated for binding to the steroid receptor by a fluorescence polarization competitive binding assay. Detailed descriptions for preparation of recombinant glucocorticoid receptor (GR) complex used in the assay is described in U.S. provisional application No. 60/291,877, filed May 18, 2001, and incorporated herein by reference in its entirety. Preparation of the tetramethyl rhodamine (TAMRA)-labeled dexamethasone probe was accomplished using a standard literature procedure (M. Pons et al., J. Steroid Biochem., 1985, 22, pp. 267-273).
A. Glucocorticoid Receptor Competitive Binding Assay
Step 1. Characterization of the Fluorescent Probe
The wavelengths for maximum excitation and emission of the fluorescent probe should first be measured. An example of such a probe is rhodamine (TAMRA)-labeled dexamethasone.
The affinity of the probe for the steroid receptor was then determined in a titration experiment. The fluorescence polarization value of the probe in assay buffer was measured on an SLM-8100 fluorometer using the excitation and emission maximum values described above. Aliquots of expression vector lysate were added and fluorescence polarization was measured after each addition until no further change in polarization value was observed. Non-linear least squares regression analysis was used to calculate the dissociation constant of the probe from the polarization values obtained for lysate binding to the probe.
Step 2. Screeningfor Inhibitors of Probe Binding
This assay uses fluorescence polarization (FP) to quantitate the ability of test compounds to compete with tetramethyl rhodamine (TAMRA)-labeled dexamethasone for binding to a human glucocorticoid receptor (GR) complex prepared from an insect expression system. The assay buffer was: 10 mM TES, 50 mM KCl, 20 mM Na2MoO4.2H2O, 1.5 mM EDTA, 0.04% w/v CHAPS, 10% v/v glycerol, 1 mM dithiothreitol, pH 7.4. Test compounds were dissolved to 1 mM in neat DMSO and then further diluted to 10×assay concentration in assay buffer supplemented with 10% v/v DMSO. Test compounds were serially diluted at 10×assay concentrations in 10% DMSO-containing buffer in 96-well polypropylene plates. Binding reaction mixtures were prepared in 96-well black Dynex microtiter plates by sequential addition of the following assay components to each well: […] of 10×test compound solution, 85 μL of GR-containing baculovirus lysate diluted 1:170 in assay buffer, and 50 μL of 15 nM TAMRA-labeled dexamethasone. Positive controls were reaction mixtures containing no test compound; negative controls (blanks) were reaction mixtures containing 0.7 μM to 2 μM dexamethasone. The binding reactions were incubated for 1 hour at room temperature and then read for fluorescence polarization in the LJL Analyst set to 550 nm excitation and 580 nm emission, with the Rhodamine 561 dichroic mirror installed. IC50 values were determined by iterative non-linear curve fitting of the FP signal data to a 4-parameter logistic equation.

IC50 | SMILES
≤ 100 nM | COc1ccc(F)cc1C(C)(C)CC(O)(Cc1ccc(C#N)cc1)C(F)(F)F (stereo not drawn) [4-[4-(5-Fluoro-2-methoxyphenyl)-2-hydroxy-4-methyl-2-trifluoromethylpentyl]benzonitrile]
≤ 100 nM | CC(C)(CC(O)(Cc1cc(C(F)(F)F)cc(Cl)c1F)C(F)(F)F)c1cc(C#N)cc2c1OCC2 (stereo not drawn) [7-[3-(3-Chloro-2-fluoro-5-trifluoromethylbenzyl)-4,4,4-trifluoro-3-hydroxy-1,1-dimethylbutyl]-2,3-dihydrobenzofuran-5-carbonitrile]
